In general, IC50 refers to the concentration that inhibits the measured activity by half.

The target of the test is T1, SMYD3 (Homo sapiens, UniProt Q9H7B4).
T1 sequence (Q9H7B4 1-428): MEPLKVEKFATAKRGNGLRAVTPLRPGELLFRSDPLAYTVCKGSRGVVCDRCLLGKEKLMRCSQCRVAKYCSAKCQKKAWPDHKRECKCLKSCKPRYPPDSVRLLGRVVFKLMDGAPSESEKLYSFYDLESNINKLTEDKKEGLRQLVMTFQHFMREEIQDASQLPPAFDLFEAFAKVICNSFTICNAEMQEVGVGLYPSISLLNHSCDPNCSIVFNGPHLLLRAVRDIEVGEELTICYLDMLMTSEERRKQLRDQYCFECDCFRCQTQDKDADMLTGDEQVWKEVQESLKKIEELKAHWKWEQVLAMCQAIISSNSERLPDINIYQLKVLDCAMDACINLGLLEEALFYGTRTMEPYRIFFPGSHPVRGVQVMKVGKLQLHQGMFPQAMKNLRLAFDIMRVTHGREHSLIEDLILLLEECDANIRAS
The test can be described thus: SMYD3 biochemical assay (MTase-Glo, MAP3K2 peptide substrate). Conditions: Table 3; MTase assay, MAP3K2 peptide substrate; read-out: IC50. The gist of the method: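 Luminescent readout of SAH production (coupled SAH→ATP conversion, MTase-Glo) after SMYD3 reacted 30 min at room temperature with 1.0 µM SAM and 10 µM MAP3K2 peptide, both final. Non-linear regression gave IC50 values.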
With `CCCOC(=O)N1CCN(C(=O)c2ccc3c(Cl)cc(-c4ccc(C(F)(F)F)cc4)nc3c2)CC1` [B066, Propyl 4-(4-chloro-2-(4-(trifluoromethyl)phenyl)quinoline-7-carbonyl)piperazine-1-carboxylate], the IC50 came to 3700 nM. Turning to `CCCOC(=O)N1CCN(C(=O)c2ccc3c(Cl)cc(-c4cccc(CC)c4)nc3c2)CC1` [B067, Propyl 4-(4-chloro-2-(3-ethylphenyl)quinoline-7-carbonyl)piperazine-1-carboxylate], the IC50 was determined as 2100 nM. As to `CCCOC(=O)N1CCN(C(=O)c2ccc3c(Cl)cc(-c4ccc(F)c(C)c4)nc3c2)CC1` [B068, Propyl 4-(4-chloro-2-(4-fluoro-3-methylphenyl)quinoline-7-carbonyl)piperazine-1-carboxylate], the IC50 came to 1300 nM. As for `CCCOC(=O)N1CCN(C(=O)c2ccc3c(Cl)cc(-c4cccc(N5CCOCC5)c4)nc3c2)C[C@H]1C` [B069, Propyl (R)-4-(4-chloro-2-(3-morphohnophenyl)quinoline-7-carbonyl)-2-methylpiperazine-1-carboxylate], the IC50 was determined as 240 nM.

On to `C#Cc1cccc(-c2cc(Cl)c3ccc(C(=O)N4CCN(C(=O)OCCC)CC4)cc3n2)c1` [B070, Propyl 4-(4-chloro-2-(3-ethynylphenyl)quinoline-7-carbonyl)piperazine-1-carboxylate], for which the IC50 is 2100 nM. `C#Cc1cccc(-c2cc(Cl)c3ccc(C(=O)N4CCN(C(=O)OCCC)[C@H](C)C4)cc3n2)c1` [B071, Propyl (R)-4-(4-chloro-2-(3-ethynylphenyl)quinoline-7-carbonyl)-2-methylpiperazine-1-carboxylate]: the IC50 was found to be 1300 nM.

As for `CCCOC(=O)N1CCN(C(=O)c2ccc3c(Cl)cc(-c4ccc([N+](=O)[O-])cc4)nc3c2)CC1` [B072, Propyl 4-(4-chloro-2-(4-nitrophenyl)quinoline-7-carbonyl)piperazine-1-carboxylate], the IC50 was found to be 1400 nM. Turning to `CCCOC(=O)N1CCN(C(=O)c2ccc3c(Cl)cc(-c4ccc(N)cc4)nc3c2)CC1` [B073, Propyl 4-(2-(4-aminophenyl)-4-chloroquinoline-7-carbonyl)piperazine-1-carboxylate], the concentration for half-maximal inhibition (IC50) is 90 nM.

Turning to `CCCOC(=O)N1CCN(C(=O)c2ccc3c(Cl)cc(-c4ccc(N)cc4)nc3c2)C[C@H]1C` [B074, Propyl (R)-4-(2-(4-aminophenyl)-4-chloroquinoline-7-carbonyl)-2-methylpiperazine-1-carboxylate], the IC50 stood at 130 nM. With `CCCOC(=O)N1CCN(C(=O)c2ccc3c(Cl)cc(-c4ccc(N5CCCC5)cc4)nc3c2)C[C@H]1C` [B075, Propyl (R)-4-(4-chloro-2-(4-(pyrrolidin-1-yl)phenyl)quinoline-7-carbonyl)-2-methylpiperazine-1-carboxylate], the IC50 came out at 440 nM.

For `CCCOC(=O)N1CCN(C(=O)c2ccc3c(Cl)cc(-c4ccc(N(C)C)cc4)nc3c2)[C@@H](C)C1` [B076, Propyl (S)-4-(4-chloro-2-(4-(dimethylamino)phenyl)quinoline-7-carbonyl)-3-methylpiperazine-1-carboxylate], the IC50 is 190 nM. Consider `CCCOC(=O)N1CCN(C(=O)c2ccc3c(Cl)cc(-c4cccc(N)c4)nc3c2)CC1` [B077, Propyl 4-(2-(3-aminophenyl)-4-chloroquinoline-7-carbonyl)piperazine-1-carboxylate], for which the IC50 came out at 120 nM. Turning to `CCCOC(=O)N1CCN(C(=O)c2ccc3c(Cl)cc(-c4cccc(N)c4)nc3c2)C[C@H]1C` [B078, Propyl (R)-4-(2-(3-aminophenyl)-4-chloroquinoline-7-carbonyl)-2-methylpiperazine-1-carboxylate], the IC50 was 130 nM. Consider `CCCOC(=O)N1CCN(C(=O)c2ccc3c(Cl)cc(C4CC4)nc3c2)C[C@H]1C` [B079, Propyl (R)-4-(4-chloro-2-cyclopropylquinoline-7-carbonyl)-2-methylpiperazine-1-carboxylate], for which the 50% inhibitory concentration (IC50) is 60 nM.

Consider `CCCOC(=O)N1CCN(C(=O)c2ccc3c(Cl)cc(-c4nccs4)nc3c2)C[C@H]1C` [B080, Propyl (R)-4-(4-chloro-2-(thiazol-2-yl)quinoline-7-carbonyl)-2-methylpiperazine-1-carboxylate], for which the IC50 was found to be 10000 nM. With `CCCOC(=O)N1C2CCCC1CN(C(=O)c1ccc3c(Cl)cc(-c4ccccc4)nc3c1)C2` [B081, Propyl 3-(4-chloro-2-phenylquinoline-7-carbonyl)-3,9-diazabicyclo[3.3.1]nonane-9-carboxylate], the IC50 was found to be 470 nM.

For the molecule `CCCOC(=O)N1CCN(C(=O)c2ccc3c(Cl)cc(-c4ccc(C(=O)N(C)C)cc4)nc3c2)C[C@H]1C` [B082, Propyl (R)-4-(4-chloro-2-(4-(dimethylcarbamoyl)phenyl)quinoline-7-carbonyl)-2-methylpiperazine-1-carboxylate], the IC50 was 690 nM. Under `CCCOC(=O)N1CCN(C(=O)c2ccc3c(Cl)cc(-c4cccc(NC)c4)nc3c2)C[C@H]1C` [B083, Propyl (R)-4-(4-chloro-2-(3-(methylamino)phenyl)quinoline-7-carbonyl)-2-methylpiperazine-1-carboxylate] stands 58 nM.

Consider `CCCOC(=O)N1CCN(C(=O)c2ccc3c(Cl)cc(-c4cccs4)nc3c2)CC1` [B084, Propyl 4-(4-chloro-2-(thiophen-2-yl)quinoline-7-carbonyl)piperazine-1-carboxylate], for which the IC50 was found to be 540 nM.

In the case of `CCCOC(=O)N1CCN(C(=O)c2ccc3c(Cl)cc(-c4cccs4)nc3c2)C[C@H]1C` [B085, Propyl (R)-4-(4-chloro-2-(thiophen-2-yl)quinoline-7-carbonyl)-2-methylpiperazine-1-carboxylate], the IC50 came out at 210 nM. The value for `CCCOC(=O)N1CCN(C(=O)c2ccc3c(Cl)cc(-c4ccc5c(cnn5C)c4)nc3c2)C[C@H]1C` [B086, Propyl (R)-4-(4-chloro-2-(1-methyl-1H-indazol-5-yl)quinoline-7-carbonyl)-2-methylpiperazine-1-carboxylate] was 11 nM; that for `CCCOC(=O)N1CCN(C(=O)c2ccc3c(Cl)cc(-c4ccc(F)c(OC)c4)nc3c2)CC1` [B087, Propyl 4-(4-chloro-2-(4-fluoro-3-methoxyphenyl)quinoline-7-carbonyl)piperazine-1-carboxylate] was 930 nM. Consider `CCCOC(=O)N1CCN(C(=O)c2ccc3c(Cl)cc(-c4ccc(F)c(OC)c4)nc3c2)C[C@H]1C` [B088, Propyl (R)-4-(4-chloro-2-(4-fluoro-3-methoxyphenyl)quinoline-7-carbonyl)-2-methylpiperazine-1-carboxylate], for which the IC50 was 14 nM. Under `CCCOC(=O)N1CCN(C(=O)c2ccc3c(Cl)cc(-c4ccc(-n5ccnc5)cc4)nc3c2)C[C@H]1C` [B089, Propyl (R)-4-(2-(4-(1H-imidazol-1-yl)phenyl)-4-chloroquinoline-7-carbonyl)-2-methylpiperazine-1-carboxylate] stands 65 nM; under `CCCOC(=O)N1CCN(C(=O)c2ccc3c(Cl)cc(-c4ccc(N5CCOCC5)cc4)nc3c2)C[C@H]1C` [B090, Propyl (R)-4-(4-chloro-2-(4-morpholinophenyl)quinoline-7-carbonyl)-2-methylpiperazine-1-carboxylate], 77 nM. On to `CCCOC(=O)N1CCN(C(=O)c2ccc3c(Cl)cc(-c4ccnn4C)nc3c2)[C@@H](C)C1` [B091, Propyl (S)-4-(4-chloro-2-(1-methyl-1H-pyrazol-5-yl)quinoline-7-carbonyl)-3-methylpiperazine-1-carboxylate], for which the IC50 was found to be 7500 nM. The value for `CCCOC(=O)N1CCN(C(=O)c2ccc3c(Cl)c(C)c(-c4ccc(C(N)=O)cc4)nc3c2)CC1` [B092, Propyl 4-(2-(4-carbamoylphenyl)-4-chloro-3-methylquinoline-7-carbonyl)piperazine-1-carboxylate] was 250 nM; that for `CCCOC(=O)N1CCN(C(=O)c2ccc3c(Cl)c(C)c(-c4ccc(CN)cc4)nc3c2)CC1` [B093, Propyl 4-(2-(4-(aminomethyl)phenyl)-4-chloro-3-methylquinoline-7-carbonyl)piperazine-1-carboxylate] was 42 nM; that for `CCCOC(=O)N1CCN(C(=O)c2ccc3c(Cl)cc(-c4ccc(S(=O)(=O)N(C)C)cc4)nc3c2)C[C@H]1C` [B094, Propyl (R)-4-(4-chloro-2-(4-(N,N-dimethylsulfamoyl)phenyl)quinoline-7-carbonyl)-2-methylpiperazine-1-carboxylate] was 610 nM. On to `CCCOC(=O)N1CCN(C(=O)c2ccc3c(Cl)cc(-c4ccc(N5CCN(C)CC5)cc4)nc3c2)C[C@H]1C` [B095, Propyl (R)-4-(4-chloro-2-(4-(4-methylpiperazin-1-yl)phenyl)quinoline-7-carbonyl)-2-methylpiperazine-1-carboxylate], for which the IC50 worked out at 56 nM.

Regarding `CCCOC(=O)N1CCN(C(=O)c2ccc3c(Cl)cc(-c4cccc(-n5cnnc5)c4)nc3c2)C[C@H]1C` [B096, Propyl (R)-4-(2-(3-(4H-1,2,4-triazol-4-yl)phenyl)-4-chloroquinoline-7-carbonyl)-2-methylpiperazine-1-carboxylate], the IC50 was 310 nM. In the case of `CCCOC(=O)N1CCN(C(=O)c2ccc3c(Cl)cc(-c4ccc(OC)c(CN)c4)nc3c2)CC1` [B097, Propyl 4-(2-(3-(aminomethyl)-4-methoxyphenyl)-4-chloroquinoline-7-carbonyl)piperazine-1-carboxylate], the IC50 was found to be 110 nM.
